Columns and labels:
[1] = test system: P. gingivalis (Pg) biofilm; assay: Pg biofilm formation induced by Fn AI-2, fluorescence staining (confocal); type: cell-based, P. gingivalis (ATCC 33277); details: D-gal 200 mM vs furanone 20 μM
Description: Further, inhibitory effects of D-gal on Pg biofilm formation induced by Fn AI-2 were examined by fluorescence staining. 2 ml of Pg culture broth (the number of bacteria: 4×10^8/ml) was used, and Fn AI-2 was used in a volume of 10% (v/v) with respect to the total volume of a mixture with Pg culture broth. 200 mM of D-gal was used, and for comparison, the same test was performed using 20 μM of the furanone compound, instead of D-gal. Biofilms formed on the cover slip were stained with fluorescent materials using the live/dead-BacLight viability kit (Invitrogen, Grand Island, N.Y., USA) and observed using a confocal microscope (Carl Zeiss, LSM 700). […] Fluorescence intensities of the obtained individual fluorescence images were quantified using ZEN 2010 program of a confocal microscope, and shown in FIG. 6.

[2] = test system: P. gingivalis (Pg) biofilm; assay: Pg biofilm formation induced by Fn secretory material, transwell, crystal violet; type: cell-based; details: for OD590 nm: Fn upper / Pg lower chamber, sugar 2 mM, 48-72 h, Fn/Pg control 0.57, Pg alone 0.30
Description: (§1) In order to examine efficacies of quorum sensing inhibitor (QSI) candidates on biofilm formation of periodontopathogenic bacteria which is induced by a secretory material of F. nucleatum (Fn), a test was performed using a transwell system. AI-2 naturally secreted by Fn is contained in the secretory material of Fn. Therefore, in the test using the transwell system, Fn AI-2 was not directly added to bacteria, but Fn was put in an upper chamber and Pg or Tf was put in a lower chamber. Biofilms cultured and formed in the presence or absence of QSI candidates were stained with crystal violet, followed by analysis. These conditions are to evaluate whether Pg or Tf biofilm formation is influenced by not a purified AI-2 but an AI-2-containing secretory material naturally secreted by Fn, and whether QSI candidates such as D-gal is able to inhibit the biofilm formation if the biofilm is then formed.
(§2) More specifically, the transwell system (24-well) has an upper chamber and a lower chamber which are separated from each other by a membrane of 0.4 μm. 500 μl of F. nucelatum (Fn) culture broth (the number of bacteria: 2×10^7 CFU/ml) was cultured in the upper chamber. A glass slip was placed in the lower chamber, and then the same number of P. gingivalis(Pg) or T. forsythia(Tf) was inoculated in 1 ml of medium and cultured for 48-72 hours. The same QSI candidates were added to the upper and lower chambers. As the QSI candidates, 2 mM of sugar (D-rib or D-gal) was used and 2 μM of the furanone compound [(5Z)-4-bromo-5-(bromomethylene)-2(5H)-furanone] was used. In order to examine whether biofilm formation of the bacteria in the lower chamber is influenced by Fn secretory material and QSI candidates, the biofilms formed on the glass slip were stained with crystal violet, and then quantified (see Examples 3 to 5).

[3] = test system: P. gingivalis (Pg) biofilm; assay: Pg biofilm formation induced by Fn AI-2, crystal violet staining; type: cell-based, P. gingivalis (ATCC 33277)
Description: To test biofilm formation by Pg, a test was performed in the same manner as in Example 3. That is, a Pg culture broth (2 ml; negative control group, the number of bacteria: 4×10^8/ml), a mixture of Pg culture broth (2 ml) and Fn AI-2 (10% (v/v) with respect to the total volume of the mixture with Pg culture broth), or a mixture of Pg culture broth (2 ml) and Fn AI-2 (10% (v/v) with respect to the total volume of the mixture with Fn culture broth) and D-gal (2 mM) was added to a 24-well plate with a glass slip (round, 12 mm radius), and cultured under anaerobic conditions for 48˜72 hours. For comparison, 2 μM of the furanone compound [(5Z)-4-bromo-5-(bromomethylene)-2(5H)-furanone] was used instead of D-gal (2 mM) to perform the same test.
(§3) Biofilms formed on the cover slips were stained with 10% crystal violet [Tris(4-(dimethylamino)phenyl)methylium chloride] for 10 minutes, washed three times with PBS, and destained with 1 ml of acetone-alcohol (20:80, vol/vol). The optical density at 590 nm of the destaining solution containing crystal violet was measured using a microplate reader (a Wallac Victor3 microtiter, PerkinElmer Life Sciences, Waltham, Mass.). The smaller optical density (OD590) measured at 590 nm represents more inhibition of biofilm formation, that is, higher quorum sensing inhibitory effect of the used QSI candidate.

F. nucleatum = assay: Effect on bacterial growth of F. nucleatum (OD 600 nm); type: cell-based; details: D-galactose 100 mM, 37° C., anaerobic, 24-48 hours, vs control 0 mM
Description: In detail, F. nucleatum was cultured in the presence of 0 mM (control group) and 100 mM of D-galactose at 37° C. under anaerobic conditions for 24-48 hours, and then optical density at 600 nm was determined to measure cell growth.

[4] = test system: F. nucleatum (Fn) biofilm; assay: Fn biofilm formation induced by Fn AI-2, crystal violet staining; type: cell-based, F. nucleatum (ATCC 25586); details: for OD590 nm: Fn + Fn AI-2 10% (v/v), sugar 2 mM, 48-72 h, smaller OD = more inhibition of biofilm, Fn/AI-2 control 1.5, Fn 0.46
Description: To test biofilm formation by Fn, a Fn culture broth (2 ml; a negative control group, the number of bacteria: 2×10^7/ml), a mixture of Fn culture broth (2 ml) and F. nucleatum AI-2 (purified from F. nucleatum secretary material of F. nucleatum culture broth using a C18 Sep-Pak reverse-phase column (Waters Co., Milford, Mass.); hereinafter, referred to as ‘Fn AI-2’; 10% (v/v) with respect to the total volume of the mixture with Fn culture broth), or a mixture of Fn culture broth (2 ml) and Fn AI-2 (10% (v/v) with respect to the total volume of the mixture with Fn culture broth) and each of QSI candidates was added to a 24-well plate with a glass slip (round, 12 mm radius), and cultured under anaerobic conditions for 48-72 hours. As the QSI candidates, sugars (D-rib, D-gal, D-Glu, D-Man, or D-ara) were used in an amount of 2 mM, and the furanone compound [(5Z)-4-bromo-5-(bromomethylene)-2(5H)-furanone] was used in an amount of 2 μM.
as §3

[5] = test system: T. forsythia (Tf) biofilm; assay: Tf biofilm formation induced by Fn secretory material, transwell, crystal violet; type: cell-based; details: for OD590: Fn upper / Tf lower chamber, sugar 2 mM, 48-72 h, Fn/Tf control 0.55, Tf alone 0.17
Description: as §1, §2

[6] = D-gal 2 mM compared to D-rib 2 mM

O=C[C@H](O)[C@@H](O)[C@@H](O)[C@H](O)CO [D-gal, D-galactose]
inhibitory effect on Pg biofilm formation, in words [1]: equivalent to that of the furanone compound
inhibitory effect on Pg biofilm formation induced by Fn secretory material, in words [2, 6]: remarkably excellent inhibitory effect, compared to D-rib
OD590 nm [2]: 0.45
OD590 nm ([3]; Pg + Fn AI-2 10% (v/v), D-gal 2 mM, 48-72 h, Pg/AI-2 control 2.00, Pg 0.66): 1.24
inhibitory effect on Pg biofilm formation, in words ([3]; crystal violet, D-gal 2 mM vs furanone 2 μM): equivalent to that of the furanone compound
effect on bacterial growth (cell growth curve, OD 600 nm), in words (F. nucleatum): does not affect bacterial growth
OD590 nm [4]: 0.57
QSI inhibitory effect (inhibitory effect on Fn biofilm formation), in words ([4]; crystal violet, sugars 2 mM, compared to negative control Fn/AI-2): excellent QSI inhibitory effect
inhibitory effect on Tf biofilm formation induced by Fn secretory material, in words [5, 6]: remarkably excellent inhibitory effect, compared to D-rib
OD590 [5]: 0.36

O=C[C@H](O)[C@H](O)[C@H](O)CO [D-rib, D-ribose, reference compound]
OD590 nm [2]: 0.58
OD590 nm [4]: 0.77
OD590 [5]: 0.69

Reference: US20190224222A1, “METHOD OF INHIBITING QUORUM SENSING USING D-GALACTOSE” (Seoul National University R&DB Foundation, priority 2014, published 2019)
